The values below come from article PMC12066977, “Alkyl Tail Variation on Chalcone‐Based Quaternary Pyridinium Salts as Rule‐of‐Thumb for Antimicrobial Activity” (Archiv Der Pharmazie, 2025).

Data set [1] has as its system E. coli. The experiment in a line: Colistin association assay. It counts as cell-based, Escherichia coli. The note with it: colistin at sub-inhibitory concentration (MIC/8 = 0.027 µM), versus compound alone. The procedure: This is a confirmation of the ability of these new QPySs to also affect Gram‐negative proliferation once they pass through the OM.
The dry powder of the chalcone‐based QPySs was resuspended in dimethylsulfoxide (DMSO) at 20 mM and used as stock solutions. For biological investigations, compounds were used in the range 100–0.78 µM, and the solvent in the corresponding percentage range. The following commercially available antimicrobials and toxic clinical drugs were purchased from Sigma‐Aldrich (St. Louis, MO, USA), dissolved in water, and used as reference controls. Gentamicin and ampicillin were used in the range 107.69–0.82 µM and 143.23–1.12 µM, respectively; the colistin was used at 0.03 µM in association with the chalcone‐based QASs with E. coli. The fluconazole was used in the assays with C. albicans in the range 3.27–0.03 µM. […]
In short, microbial inocula were prepared at 0.5 McFarland in PBS and, subsequently, bacterial suspensions were diluted 1:200 in Mueller–Hinton broth (Sigma‐Aldrich, St. Louis, MO, USA), while fungal inoculum was diluted 1:20 in RPMI‐1640 medium (Gibco®, ThermoFisher Scientific Inc., Waltham, MA, USA), containing glucose 2%, 0.3% levo‐glutamine buffered to pH 7.0 with 0.165 M 3‐(N‐morpholino) propanesulfonic acid (MOPS). […] The plate was incubated at 37°C for 24 h, and subsequently the optical density at 630 nm (OD630nm) was spectrophotometrically measured. […]

For data set [2], the system named is human red blood cells (hRBCs). The experiment in a line: Hemolytic activity assay. It counts as cell-based. The note with it: 25 µM, 90 min, 37°C. The procedure:
The hemolytic activity of some selected compounds was evaluated as the amount of hemoglobin released by the disruption of human red blood cells (hRBCs). For the experiments, fresh hRBCs were collected by centrifugation at 1500g for 10 min, washed three times with PBS, and resuspended to a final concentration of 4% w/v hRBCs in PBS. Then, 100 µL of hRBCs suspension and an equal volume of the twofold dilutions of the antimicrobial peptides were mixed in a 96‐well plate and incubated for 90 min at 37°C. After centrifugation at 1000g for 5 min, the supernatants were transferred into a clear 96‐well plate, and OD405nm was read. Untreated hRBCs (incubated with PBS) and hRBCs incubated with 1% Triton X‐100 were employed as negative and positive controls, respectively. The hemolysis percentage was calculated as [OD405nm (sample) − OD4_05nm (negative control)]/[OD405nm (positive control) − OD405nm (negative control)] × 100. Minimal hemolytic concentrations (MHCs) were defined as the compound concentration causing 10% hemolysis. Three independent experiments were performed in triplicate.

In data set [3] the test system is C. albicans ATCC 10231. The experiment in a line: Broth microdilution antimicrobial assay (MIC, IC50). It counts as cell-based. Conditions: Candida albicans, 24 h. The procedure:
(§1) Reference strains of Staphylococcus aureus (ATCC 25923), Escherichia coli (ATCC 25922), and Candida albicans (ATCC 10231) were used in this study as microbial models. These strains were purchased from the American Type Culture Collection (ATCC); bacterial cultures were routinely grown on 5% blood agar plate, while fungal cultures on Sabouraud Dextrose Agar (Biolife […]., Milan, Italy). […] In short, microbial inocula were prepared at 0.5 McFarland in PBS and, subsequently, bacterial suspensions were diluted 1:200 in Mueller-Hinton broth (Sigma-Aldrich, St. Louis, MO, USA), while fungal inoculum was diluted 1:20 in RPMI-1640 medium (Gibco®, ThermoFisher Scientific Inc., Waltham, MA, USA), containing glucose 2%, 0.3% levo-glutamine buffered to pH 7.0 with 0.165 M 3-(N-morpholino) propanesulfonic acid (MOPS). A total of 100 μL of these microbial suspensions was introduced into a 96-well microplate and incubated with 100 μL of the compounds, two-fold serially diluted in the range of 100-0.19 μM. Positive controls (microbial suspensions in regular media), negative controls (only compounds), and solvent controls (microbial suspensions incubated with DMSO dilutions) were included in the tests. The plate was incubated at 37°C for 24 h, and subsequently the optical density at 630 nm (OD630nm) was spectrophotometrically measured. Experiments were carried out in triplicate in three biological replicates. […] Statistical analysis was carried out by using GraphPad Prism version 9.4.1 for Windows (GraphPad Software, San Diego, California USA, www.graphpad.com). ^a MIC (Minimum Inhibitory Concentration) were determined in vitro by means of a standardized microdilution assay, in compliance with the Clinical and laboratory Standard Institute (CLSI) guidelines (30). Microbial suspensions were prepared at 0.5 McFarland in PBS, then diluted in the media and transferred in a 96 micro-well plate together with the serially 2-fold dilutions of the compounds. After 24h of incubation at 37°C, microbial growths were evaluated by measuring the Optical Density at 600 nm, then percentage values were obtained as relative to the positive controls (microbial suspensions in regular media).

Data set [4] concerns S. aureus ATCC 25923. Described as above. The class given is cell-based. Conditions: Staphylococcus aureus. The procedure:
as §1

Data set [5] has as its system E. coli ATCC 25922. The description is as above. The class given is cell-based. Conditions: Escherichia coli, 24 h. The procedure:
as §1

Regarding `C#CCOc1ccc(C(=O)/C=C/c2ccc[n+](CCCCCCCCCCCCCC)c2)c(OCC#C)c1.[Br-]` [Compound 6, (E)‐3‐{3‐[2,4‐Bis(prop‐2‐yn‐1‐yloxy)phenyl]‐3‐oxoprop‐1‐en‐1‐yl}‐1‐tetradecylpyridin‐1‐ium bromide], the “MIC decrease for E. coli in association with colistin” value in data set [1] is given as “fourfold”. The molecule further showed a hemolytic activity in data set [2] of 88.7%. Also, the IC50 (in general, the concentration at which inhibition is half-maximal) in data set [3] (ATCC10231, 50% growth inhibition, read-out: IC50 [95% confidence interval] Candida albicans) was 1320 nM; in data set [4] (ATCC25923, 50% growth inhibition, 24 h, read-out: IC50 [95% confidence interval] Staphylococcus aureus), 1300 nM; in data set [5] (ATCC25922, 50% growth inhibition, read-out: IC50 [95% confidence interval] Escherichia coli), 36300 nM. Besides, the MIC (as a rule, the smallest concentration in the dilution series that meets the test's criterion for growth inhibition) in data set [3] (ATCC10231, broth microdilution, 37°C) came out at 1.56 µM; in data set [4] (ATCC25923, 24 h, broth microdilution, 37°C), 3.12 µM; in data set [5] (ATCC25922, broth microdilution, 37°C), 50 µM.
